Reference: patent publication US11266644B2, “Pharmaceutical composition for preventing and treating diabetic nephropaphy including adenosine derivative” (FUTURE MEDICINE CO., LTD., priority 2017, dated 2022)

Key:
[1] = test system: db/db diabetic mice; assay: Type 2 diabetic renal damage, db/db mice, comparison with Losartan (Experimental Example 2); format: in vivo; conditions: oral, daily 12 weeks, Formula B 10 mg/kg; for glomerular filtration rate decrease / glomerular hypertrophy / proteinuria / tubular injury: Losartan 1.5 mg/kg (FIG. 4-6); for renal fibrosis: Losartan 1.5 mg/kg (FIG. 7, 8); for inflammation response: Losartan 1.5 mg/kg (FIG. 9, 10); for oxidative stress: Losartan 1.5 mg/kg (FIG. 11, 12); for lipid accumulation: Losartan 1.5 mg/kg (FIG. 13, 14)
Experimental: In order to compare the therapeutic efficacy between the adenosine derivative of the present invention and Losartan, which is used for alleviating the symptoms of diabetic kidney disease, the following animal experiments were performed.
The compound of Chemical Formula B and rosartan were oral administered at a dose of 10 mg/kg and 1.5 mg/kg to 8-week-old normal db/m mice in which diabetes were not induced and 8-week-old db/db diaetic mice in which diabetes were induced, respectively for 12 weeks daily. The kidneys of the solvent control group and the drug administration group were extracted to observe the histological changes of the glomeruli and the changes in the indicators for renal damage such as proteinuria, glomerular filtration rate reduction, tubular injury, glomerular hypertrophy, renal fibrosis, inflammatory response, oxidative stress and lipid accumulation were compared.
(§1) The morphological analysis of kidney including glomeruli was performed by PAS staining of kidney tissues followed by random selection of each 50, quantification by an image analyzer and statistics, and urinary albumin and LPO were analyzed by electrophoresis and ELISA (Enzyme-Linked ImmunoSorbent Assay) and mRNA expression was analyzed by real time PCR.
Glomerular filtration rate was calculated by measuring blood and urine creatinine using the Jaffe method and changes in kidney protein were measured by western blot, ELISA and immunohistochemistry.
In FIG. 4 to FIG. 14, db/m and db/db represent the mice to which the solvent (0.25% CMC) used in administering the compound of Chemical Formula B was administered, respectively, and db/m+LJ2698 and db/db+LJ2698 represent normal mice and diabetic mice to which the compound of Chemical Formula B is administered for 12 weeks, respectively. db/db+Losartan represents diabetic mice to which Losartan was administered for 12 weeks.

[2] = test system: db/db diabetic mice; assay: Type 2 diabetic renal damage, db/db mice, dose-dependency (Experimental Example 1); format: in vivo; conditions: db/db mice, 1.5, 5 and 10 mg/kg
Experimental: The following animal experiments were performed to examine the inhibitory effect of the adenosine derivatives of the present invention on renal damage in the type 2 diabetes model.
After 12 weeks of the administration, kidneys of the solvent control group and the test substance administration group were extracted to observe the histological changes of the glomeruli and the levels of urinary albumin and LPO (lipid peroxide) or the amount of mRNA expression for nephrin, NGAL, TGF-β, collagen IV, fibronectin, MCP-1 and ICAM-1 was set as an index for renal damage and the protective effect for kidney was measured. Db/m mice in which diabetes were not induced, were added as a control group and only a solvent was administered to observe and measure the above items.
Of these indices, urinary albumin level means proteinuria, nephrin reduction means podocyte injury, NGAL increase means tubular injury, TGF-β increase means fibrosis, inflammatory cytokine (MCP-1, ICAM-1) increase means Inflammatory response and LPO values indicate oxidative stress.
as §1, with “of” for “of kidney including”, “PAS (Periodic Acid Schiff)” for “PAS”
In FIG. 2 and FIG. 3, db/m represents normal mice, db/db represents diabetic mice administered with only solvent (0.25% CMC) and db/db+LJ2698 (1.5 mg/kg), db/db+LJ2698 (5 mg/kg) and db/db+LJ2698 (10 mg/kg) represent diabetic mice in which the compound of Chemical Formula B is administered at 1.5, 5 and 10 mg/kg, respectively, for 12 weeks daily.

[3] = test system: mice in which type 1 diabetes was induced (STZ); assay: Type 1 diabetic renal damage, streptozotocin-induced diabetic mice (Experimental Example 3); format: in vivo; conditions: daily 12 weeks, Formula B 10 mg/kg
Experimental: The following animal experiments were performed to examine the inhibitory effect on the kidney injury by administering the adenosine derivative of the present invention to an animal model of type 1 diabetes.
After streptozotocin (STZ) was administered to normal mice for 5 days to induce type 1 diabetes, the mice have been classified into, a group in which 10 mg/kg compound of Chemical Formula B was administered daily, a group in which 1.5 mg/kg of LC158809, a type of ARB, was administered daily, and a group in which 10 mg/kg compound of Chemical Formula B and 1.5 mg/kg of LC158809 were co-administered daily, then all groups were given total of 12 weeks administration.
Kidney function and histologic changes of the kidney and the like were examined for normal mice to which streptozotocin was not administered, diabetic mice to which the only solvent was administered after 12 weeks of streptozotocin administration and diabetic mice to which test substance was administered after 12 weeks of streptozotocin administration.
FIG. 15 to FIG. 17 are graphs showing the results of measuring the levels of urinary albumin, nephrin and 8-isoprostan according to the above-mentioned experiment. Urine albumin, nephrin and 8-isoprostanone levels were measured as indicators of proteinuria, glomerular podocyte damage and oxidative stress, respectively.
In FIG. 15 to FIG. 19, Control and STZ represent normal mice and mice in which type 1 diabetes was induced, and STZ+ARB, STZ+LJ2698 and STZ+ARB+LJ2698 represent diabetic mice in which […] and the compound of Chemical Formula B+LC158809 (co-administration) were administered for 12 weeks, respectively.

[4] = test system: mice-derived tubular epithelial cells; assay: Inflammation and fibrosis response in cultured tubular epithelial cells (Experimental Example 4); format: cell-based; conditions: induced with high glucose, angiotensin II and free fatty acids (FIG. 20)
Experimental: (§2) In order to examine the anti-inflammatory and anti-fibrotic effects of the adenosine derivatives of the present invention on cultured cells, the following in vitro experiments were performed.

[5] = test system: mice-derived glomerular podocyte; assay: Inflammation and fibrosis response in cultured glomerular podocytes (Experimental Example 4); format: cell-based; conditions: induced with high glucose, angiotensin II and free fatty acids (FIG. 20)
Experimental: as §2

[6] = LC158809 1.5 mg/kg (FIG. 18, 19)

CCCCc1nc(Cl)c(CO)n1Cc1ccc(-c2ccccc2-c2nn[nH]n2)cc1 [Losartan, (2-butyl-4-chloro-1-{[2′-(1H-tetrazol-5-yl)biphenyl-4-yl]methyl}-1H-imidazol-5-yl}methanol, reference compound]
glomerular filtration rate decrease [1]: similar | glomerular hypertrophy [1]: similar | proteinuria [1]: similar | tubular injury [1]: similar | renal fibrosis [1]: inhibited to a similar level | inflammation response [1]: inhibited to a similar level | oxidative stress [1]: inhibited to a similar level | lipid accumulation [1]: inhibited to a similar level

O[C@@H]1[C@H](O)CS[C@H]1n1cnc2c(NCc3cccc(Cl)c3)nc(Cl)nc21 [compound of Chemical Formula B, (2R,3R,4S)-2-(2-chloro-6-(3-chlorobenzylamino)-9H-purin-9-yl)tetrahydrothiophene-3,4-diol]
glomerular filtration rate decrease [1]: inhibited | glomerular hypertrophy [1]: inhibited | proteinuria [1]: inhibited | tubular injury [1]: inhibited | renal fibrosis [1]: inhibited to a similar level | inflammation response [1]: inhibited to a similar level | oxidative stress [1]: inhibited to a similar level | lipid accumulation [1]: inhibited to a similar level | vasodilation (glomerular mesangium) ([2]; 12 weeks (FIG. 1, 2)): significantly inhibited | urinary albumin levels (proteinuria) ([2]; 12 weeks (FIG. 3)): inhibited dependently on dose | glomerular hypertrophy ([2]; 12 weeks, PAS staining (FIG. 1, 2)): significantly inhibited | NGAL (tubular injury indicator) ([2]; 12 weeks, mRNA (FIG. 3)): inhibited dependently on dose | TGF-β (fibrosis indicator) ([2]; 12 weeks, mRNA (FIG. 3)): inhibited dependently on dose | collagen IV ([2]; 12 weeks, mRNA (FIG. 3)): inhibited dependently on dose | nephrin (podocyte injury indicator) ([2]; 12 weeks, mRNA (FIG. 3)): inhibited dependently on dose | urinary nephrin (glomerular podocyte damage) ([3]; LC158809 1.5 mg/kg (FIG. 16)): significantly reduced | fibrosis of the kidney [3, 6]: significantly reduced | inflammation of the kidney [3, 6]: significantly reduced | urinary albumin (proteinuria) ([3]; LC158809 1.5 mg/kg, alone or co-administered (FIG. 15)): significantly reduced | urinary 8-isoprostanone (oxidative stress) ([3]; LC158809 1.5 mg/kg, alone or co-administered (FIG. 17)): significantly reduced | anti-fibrosis effect (collagen IV) [4]: anti-fibrosis | anti-inflammatory effect (Nephrin, MCP-1) [4]: anti-inflammatory effect | antioxidant effect (NOX4) [4]: antioxidant | anti-fibrosis effect (collagen IV) [5]: anti-fibrosis | anti-inflammatory effect (Nephrin, MCP-1) [5]: anti-inflammatory effect | antioxidant effect (NOX4) [5]: antioxidant
